Results: ChEMBL document CHEMBL1201862, “PubChem BioAssay data set” (2004)
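Exposure lasted 48 hours, with cells grown in 96-well plates and compounds tested at five concentrations. Abbreviation: GI50, concentration required for 50% inhibition of growth.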 Calls of active or inactive are those of the source. No stated cut-off is given here; in the data, active = GI50 up to about 1.1 µM and inactive = higher.

What was measured:
Experiment in all cases: inhibition of tumour cell growth, NCI panel, 48 h
[1] = tested on: HCT-15
[2] = tested on: MDA-MB-231
[3] = tested on: M14
[4] = tested on: DU-145
[5] = tested on: SNB-75
[6] = tested on: HT-29
[7] = tested on: ACHN
[8] = tested on: HL-60
[9] = tested on: A549
[10] = tested on: BT-549
[11] = tested on: OVCAR-8
[12] = tested on: RXF 393
[13] = tested on: NCI/ADR-RES
[14] = tested on: MDA-N
[15] = tested on: HCT-116
[16] = tested on: SK-OV-3
[17] = tested on: SF-539

Question: What does the source list for `O=C(CC1C=CCS1(=O)=O)NCc1ccccc1` (stereo not drawn)?
Answer: GI50 [1]: > 100 µM; GI50 [2]: > 100 µM (inactive); GI50 [3]: > 100 µM (inactive); GI50 [4]: > 100 µM (inactive); GI50 [5]: > 100 µM (inactive); GI50 [6]: > 100 µM (inactive); GI50 [7]: > 100 µM (inactive); GI50 [8]: > 100 µM (inactive); GI50 [9]: > 100 µM (inactive); GI50 [10]: > 100 µM (inactive); GI50 [11]: > 100 µM (inactive); GI50 [12]: > 100 µM (inactive); GI50 [13]: > 100 µM (inactive); GI50 [14]: > 100 µM (inactive); GI50 [15]: > 100 µM (inactive); GI50 [16]: > 100 µM (inactive); GI50 [17]: > 100 µM (inactive)

Question: For `CCN(CC)CCN1C=CC(C)C(C(=O)O)C1C(N)=O` (stereo not drawn), which GI50 [1] is on record?
Answer: > 100 µM

Question: What about the GI50 [2] of the same compound?
Answer: > 100 µM (inactive)

Question: What about the GI50 [3] of the same compound?
Answer: > 100 µM (inactive)

Question: What about the GI50 [4] of the same compound?
Answer: > 100 µM (inactive)

Question: What about the GI50 [5] of the same compound?
Answer: > 100 µM (inactive)

Question: And the GI50 [6]?
Answer: > 100 µM (inactive)

Question: And the GI50 [7]?
Answer: > 100 µM (inactive)

Question: And the GI50 [8]?
Answer: > 100 µM (inactive)

Question: And the GI50 [9]?
Answer: > 100 µM (inactive)

Question: And the GI50 [10]?
Answer: > 100 µM (inactive)

Question: What about the GI50 [11] of the same compound?
Answer: > 100 µM (inactive)

Question: And the GI50 [12]?
Answer: > 100 µM (inactive)

Question: And the GI50 [13]?
Answer: > 100 µM (inactive)

Question: And the GI50 [14]?
Answer: > 100 µM (inactive)

Question: And the GI50 [15]?
Answer: > 100 µM (inactive)

Question: And the GI50 [16]?
Answer: > 100 µM (inactive)

Question: With `COc1ccc(N2C(=O)C3c4[nH]c5ccc(C)cc5c4C4CCC(C(C)(C)C)CC4C3C2=O)cc1` (stereo not drawn) as the compound, how does the GI50 [1] read?
Answer: 27.5 µM

Question: And the GI50 [2]?
Answer: 35.9 µM (inactive)

Question: What about the GI50 [3] of the same compound?
Answer: 10.7 µM (inactive)

Question: What about the GI50 [4] of the same compound?
Answer: > 100 µM (inactive)

Question: And the GI50 [5]?
Answer: 2.96 µM (inactive)

Question: And the GI50 [6]?
Answer: 12.7 µM (inactive)

Question: What about the GI50 [7] of the same compound?
Answer: 7.64 µM (inactive)

Question: What about the GI50 [8] of the same compound?
Answer: 19.1 µM (inactive)

Question: And the GI50 [9]?
Answer: 6.9 µM (inactive)

Question: And the GI50 [10]?
Answer: 20.7 µM (inactive)

Question: And the GI50 [11]?
Answer: 6.21 µM (inactive)

Question: And the GI50 [12]?
Answer: 16.9 µM (inactive)

Question: What about the GI50 [13] of the same compound?
Answer: 13.3 µM (inactive)

Question: And the GI50 [14]?
Answer: > 10 µM (inactive)

Question: What about the GI50 [15] of the same compound?
Answer: 7.66 µM (inactive)

Question: And the GI50 [16]?
Answer: 12.4 µM (inactive)

Question: What about the GI50 [17] of the same compound?
Answer: 15.6 µM (inactive)

Question: How did the GI50 [1] turn out when `CCc1nc(N)c2nc(-c3cccs3)oc2n1` was run?
Answer: 86.9 µM

Question: What about the GI50 [2] of the same compound?
Answer: > 100 µM (inactive)

Question: And the GI50 [3]?
Answer: > 100 µM (inactive)

Question: What about the GI50 [4] of the same compound?
Answer: > 100 µM (inactive)

Question: What about the GI50 [5] of the same compound?
Answer: 71.4 µM (inactive)

Question: And the GI50 [6]?
Answer: > 100 µM (inactive)

Question: What about the GI50 [7] of the same compound?
Answer: 36.4 µM (inactive)

Question: And the GI50 [8]?
Answer: > 100 µM (inactive)

Question: And the GI50 [9]?
Answer: > 100 µM (inactive)

Question: And the GI50 [10]?
Answer: > 100 µM (inactive)

Question: What about the GI50 [11] of the same compound?
Answer: > 100 µM (inactive)

Question: And the GI50 [12]?
Answer: > 100 µM (inactive)

Question: What about the GI50 [13] of the same compound?
Answer: > 100 µM (inactive)

Question: And the GI50 [14]?
Answer: > 100 µM (inactive)

Question: What about the GI50 [15] of the same compound?
Answer: > 100 µM (inactive)

Question: What about the GI50 [17] of the same compound?
Answer: > 100 µM (inactive)

Question: With `Cc1ccc(S(=O)(=O)/N=C(\NN)Nc2ccc(Cl)cc2)cc1` as the compound, how does the GI50 [1] read?
Answer: > 100 µM

Question: And the GI50 [2]?
Answer: > 100 µM (inactive)

Question: And the GI50 [3]?
Answer: > 100 µM (inactive)

Question: And the GI50 [4]?
Answer: > 100 µM (inactive)

Question: And the GI50 [5]?
Answer: 37.8 µM (inactive)

Question: And the GI50 [6]?
Answer: > 100 µM (inactive)

Question: And the GI50 [7]?
Answer: > 100 µM (inactive)

Question: What about the GI50 [8] of the same compound?
Answer: > 100 µM (inactive)

Question: What about the GI50 [9] of the same compound?
Answer: > 100 µM (inactive)

Question: What about the GI50 [10] of the same compound?
Answer: > 100 µM (inactive)

Question: And the GI50 [11]?
Answer: > 100 µM (inactive)

Question: And the GI50 [12]?
Answer: 60.7 µM (inactive)

Question: And the GI50 [13]?
Answer: > 100 µM (inactive)

Question: And the GI50 [14]?
Answer: > 100 µM (inactive)

Question: What about the GI50 [15] of the same compound?
Answer: > 100 µM (inactive)

Question: And the GI50 [16]?
Answer: > 100 µM (inactive)

Question: And the GI50 [17]?
Answer: 35.2 µM (inactive)

Question: Which results are given for `Cc1ccc2c3c(cnc2n1)C(=O)OCCN3C`?
Answer: GI50 [1]: > 100 µM; GI50 [2]: > 100 µM (inactive); GI50 [3]: > 100 µM (inactive); GI50 [4]: > 100 µM (inactive); GI50 [6]: > 100 µM (inactive); GI50 [7]: > 100 µM (inactive); GI50 [8]: > 100 µM (inactive); GI50 [9]: > 100 µM (inactive); GI50 [10]: > 100 µM (inactive); GI50 [11]: > 100 µM (inactive); GI50 [12]: > 100 µM (inactive); GI50 [13]: > 100 µM (inactive); GI50 [14]: > 100 µM (inactive); GI50 [15]: > 100 µM (inactive); GI50 [17]: > 100 µM (inactive)
